Reference: ChEMBL document CHEMBL4130505, “4-Quinolone hybrids and their antibacterial activities” (Eur J Med Chem, 2017)
≈ marks a conversion by molar mass, not a printed value.

What was measured:
[1] = test system: Escherichia coli; experiment: Antibacterial activity against Escherichia coli NCTC 10419 infected in CF mouse assessed as protection against bacterial infection administered orally at 1 and 4 hrs post infection measured after 1 week; assay type: functional, organism-based
[2] = test system: Escherichia coli; experiment: Potency index, ratio of ciprofloxacin EC50 to compound EC50 for antibacterial activity against Escherichia coli NCTC 10419 infected in CF mouse; assay type: functional
[3] = test system: Escherichia coli; experiment: Potency index, ratio of ciprofloxacin MIC to compound MIC for Escherichia coli NCTC 10419; assay type: functional
[4] = test system: Escherichia coli; experiment: Antibacterial activity against Escherichia coli; assay type: functional
[5] = test system: Escherichia coli; experiment: Potency index, ratio of ciprofloxacin MIC to compound MIC for Escherichia coli; assay type: functional
[6] = test system: Klebsiella pneumoniae; experiment: Antibacterial activity against Klebsiella pneumoniae by microdilution method; assay type: functional
[7] = Solubility of the compound in water; assay type: physicochemical
[8] = test system: Escherichia coli; experiment: microbe, parasite or virus in culture; details: NCTC 10419
Description: Antibacterial activity against Escherichia coli NCTC 10419 after 18 to 20 hrs by agar dilution method

With `COc1cc(Cc2cnc(/N=C3\C(=O)N(CN4CCN(c5cc6c(cc5F)c(=O)c(C(=O)O)cn6C5CC5)CC4)c4ccc(C)cc43)nc2N)cc(OC)c1OC` the EC50 [1] was 0.62 mg/kg, the “Ratio EC50” value [2] was 2 and the Ratio [3] was 5.5.
For `O=C1OCC(OCCN2CCN(c3cc4c(cc3F)c(=O)c(C(=O)O)cn4C3CC3)CC2)=C1c1ccccc1F`, the MIC [4] was 0.11 µg/mL (≈ 0.199 µM) and the Ratio [5] was 50.
`CC1=NOc2c(N3CCC(C)CC3)c(F)cc3c(=O)c(C(=O)O)cn1c23` gave an MIC [6] of 8 µg/mL (≈ 22.3 µM).
`CO/N=C1\CCN(c2cc3c(cc2F)c(=O)c(C(=O)O)cn3C2CC2)CC1N.CS(=O)(=O)O` (stereo unspecified) gave a solubility [7] of 22.5 mg/mL.
`CC1=NOc2c(N3CCN(C)CC3)c(F)cc3c(=O)c(C(=O)O)cn1c23` gave an MIC [6] of 8 µg/mL (≈ 22.2 µM).
For `CC1=NOc2c(N3CCc4ccccc4C3)c(F)cc3c(=O)c(C(=O)O)cn1c23`, the MIC [6] was 8 µg/mL (≈ 20.3 µM).
`O=C(O)c1cn(C2CC2)c2cc(N3CCNCC3)c(F)cc2c1=O` [CIPROFLOXACIN] gave an EC50 [1] of 1.25 mg/kg and an MIC [8] of 1.1 nM (≈ 0.364 ng/mL).
